Tests used:
Assay in all cases: relative viability (nuclei count vs DMSO), 5 days (fraction); higher = more cells survive
PAC-1 + Phenformin = compound: C=CCc1cccc(/C=N/NC(=O)CN2CCN(Cc3ccccc3)CC2)c1O [PAC-1] + N=C(N)NC(=N)NCCc1ccccc1 [Phenformin] (partner 250 µM)
Outline: (§1)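 Lung cancer cell lines, seeded in 1536-well plates, were treated the following day by pin tool with a single drug or with five library-drug doses (not always all listed) in √10 steps on top of a fixed anchor-drug dose. Cells were fixed and nuclei stained in one step after 5 days, and nuclei were counted. Relative viability is the nuclei count for treated wells divided by that for vehicle wells, reported as medians of duplicate plates.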

Ibrutinib + Trametinib = compound: C=CC(=O)N1CCC[C@@H](n2nc(-c3ccc(Oc4ccccc4)cc3)c3c(N)ncnc32)C1 [Ibrutinib] + CC(=O)Nc1cccc(-n2c(=O)n(C3CC3)c(=O)c3c(Nc4ccc(I)cc4F)n(C)c(=O)c(C)c32)c1 [Trametinib] (partner 0.02 µM)
Outline: as §1

PAC-1 + Alpelisib = compound: C=CCc1cccc(/C=N/NC(=O)CN2CCN(Cc3ccccc3)CC2)c1O [PAC-1] + Cc1nc(NC(=O)N2CCC[C@H]2C(N)=O)sc1-c1ccnc(C(C)(C)C(F)(F)F)c1 [Alpelisib] (partner 2 µM)
Outline: as §1

Ibrutinib + Navitoclax = compound: C=CC(=O)N1CCC[C@@H](n2nc(-c3ccc(Oc4ccccc4)cc3)c3c(N)ncnc32)C1 [Ibrutinib] + CC1(C)CCC(c2ccc(Cl)cc2)=C(CN2CCN(c3ccc(C(=O)NS(=O)(=O)c4ccc(N[C@H](CCN5CCOCC5)CSc5ccccc5)c(S(=O)(=O)C(F)(F)F)c4)cc3)CC2)C1 [Navitoclax] (partner 0.5 µM)
Outline: as §1

Row | Cell Line | relative viability (PAC-1 + Phenformin; first compound 0.02 µM) | relative viability (PAC-1 + Phenformin; first compound 0.06325 µM) | relative viability (PAC-1 + Phenformin; first compound 0.2 µM) | relative viability (PAC-1 + Phenformin; first compound 2 µM) | relative viability (Ibrutinib + Trametinib; first compound 0.005 µM) | relative viability (Ibrutinib + Trametinib; first compound 0.01581 µM) | relative viability (Ibrutinib + Trametinib; first compound 0.05 µM) | relative viability (Ibrutinib + Trametinib; first compound 0.1581 µM) | relative viability (Ibrutinib + Trametinib; first compound 0.5 µM) | relative viability (PAC-1 + Alpelisib; first compound 0.02 µM) | relative viability (PAC-1 + Alpelisib; first compound 0.06325 µM) | relative viability (PAC-1 + Alpelisib; first compound 0.2 µM) | relative viability (PAC-1 + Alpelisib; first compound 2 µM) | relative viability (Ibrutinib + Navitoclax; first compound 0.005 µM) | relative viability (Ibrutinib + Navitoclax; first compound 0.01581 µM) | relative viability (Ibrutinib + Navitoclax; first compound 0.05 µM) | relative viability (Ibrutinib + Navitoclax; first compound 0.1581 µM) | relative viability (Ibrutinib + Navitoclax; first compound 0.5 µM)
1 | 201T | 0.43 | 0.47 | 0.468 | 0.453 | 0.721 | 0.708 | 0.695 | 0.712 | 0.683 | 0.935 | 1 | 1.03 | 1.01 | 1.22 | 1.17 | 1.17 | 1.22 | 1.17
2 | A549 | 0.22 | 0.167 | 0.139 | 0.171 |  |  |  |  |  | 0.718 | 0.727 | 0.694 | 0.707 | 1.26 | 1.2 | 1.23 | 1.3 | 1.19
3 | A-427 | 0.328 | 0.384 | 0.338 | 0.279 | 0.654 | 0.777 | 0.782 |  | 0.694 | 1.17 | 1.08 | 1.05 | 1.05 | 0.861 | 0.923 | 0.985 | 0.98 | 0.92
4 | ABC-1 | 0.217 | 0.231 | 0.24 | 0.21 |  |  |  |  |  | 1.11 | 1.06 | 1.1 | 1.28 |  |  |  |  | 
5 | BEN | 0.273 | 0.282 | 0.266 | 0.302 | 0.897 |  | 1.06 | 0.974 | 0.794 | 1.04 | 1.1 | 1.09 | 0.965 | 0.0796 | 0.0705 | 0.0699 | 0.0622 | 0.0639
6 | CAL-12T | 0.6 | 0.657 | 0.542 | 0.571 | 0.236 | 0.297 | 0.3 | 0.382 | 0.298 | 1.13 | 1.18 | 1.16 | 1.37 |  | 1.16 | 1.33 | 1.37 | 0.951
7 | COR-L23 | 0.458 | 0.434 | 0.423 | 0.429 | 0.393 | 0.574 | 0.621 | 0.647 | 0.756 | 0.715 | 0.812 | 0.693 | 0.816 | 1.14 | 1 | 1.04 | 1.16 | 1.11
8 | COR-L 105 | 0.465 | 0.484 | 0.428 | 0.455 | 0.381 | 0.384 | 0.407 | 0.419 | 0.339 | 0.736 | 1.22 | 1.04 | 1.24 | 0.548 | 0.74 | 0.625 | 0.681 | 0.385
9 | Calu-6 |  |  |  |  |  |  |  |  |  | 0.929 | 1.03 | 0.931 | 1.13 | 0.954 | 0.746 | 0.771 | 0.955 | 0.756
10 | ChaGo-K-1 | 0.462 | 0.493 | 0.513 | 0.439 | 0.907 | 0.879 | 0.922 | 0.857 | 0.854 |  |  |  |  | 0.506 | 1.12 | 0.933 |  | 1.19
11 | EBC-1 |  |  |  |  |  |  |  |  |  | 0.769 | 0.808 | 0.736 | 0.809 | 0.441 | 0.433 | 0.516 | 0.349 | 0.388
